According to PubChem BioAssay AID743440 (Broad Institute, 2014):
Activity calls are given as the source filed them.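 The calls were made as follows: active = AC50 for cell killing below 10 µM, with the signal falling as expected; inactive = the rest, including compounds acting in the opposite direction.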

System: HepG2 viability, ATP luminescence (CellTiter-Glo), 72 h
Test: HepG2 cell cytotoxicity, dose response, cytotoxicity control, plate reader, dry powder, set 11 (AID 743440)
Details: not given

Question: For `Cc1ccc(CNC(=O)CSc2c3c(nc4ccc(Cl)cc24)CCCC3)cc1`, which AC50 is on record?
Answer: > 52 µM (inactive)

Question: For `O=C(CSc1c2c(nc3ccc(Cl)cc13)CCCC2)NC1CCN(Cc2ccccc2)CC1`, which AC50 is on record?
Answer: 26.3 µM

Question: For `Cc1cccc(NC(=O)CSc2c3c(nc4ccc(Cl)cc24)CCCC3)n1`, which AC50 is on record?
Answer: 26.2 µM

Question: Which AC50 does the source give for `CCCCOc1ccc(NC(=O)COc2ccccc2C(=O)NCCOc2ccccc2)cc1` here?
Answer: > 52 µM (inactive)

Question: With `CN(C(=O)COc1ccccc1C(=O)NCCc1ccccc1)c1ccccc1` as the compound, how does the AC50 read?
Answer: > 52 µM (inactive)

Question: Which AC50 does the source give for `CN(CCNC(=O)CSc1c2c(nc3ccc(Cl)cc13)CCCC2)Cc1ccccc1` here?
Answer: > 52 µM (inactive)

Question: Which AC50 does the source give for `COc1cc(C(=O)NCCCN(C)C)ccc1OCC(=O)Nc1cccc(C(F)(F)F)c1` here?
Answer: > 52 µM (inactive)

Question: Which AC50 does the source give for `CCN(CC)CCCNC(=O)c1ccc(OCC(=O)Nc2ccccc2C(F)(F)F)c(OC)c1` here?
Answer: > 52 µM (inactive)

Question: Which AC50 does the source give for `O=C(CSc1c2c(nc3ccc(Cl)cc13)CCCC2)Nc1ccc(Cl)cc1` here?
Answer: > 52 µM (inactive)

Question: With `COCCNC(=O)CSc1c2c(nc3ccc(Cl)cc13)CCCC2` as the compound, how does the AC50 read?
Answer: > 52 µM (inactive)

Question: With `COc1ccc(CNC(=O)CSc2c3c(nc4ccc(Cl)cc24)CCCC3)cc1` as the compound, how does the AC50 read?
Answer: > 52 µM (inactive)

Question: For `CCCNC(=O)CSc1c2c(nc3ccc(Cl)cc13)CCCC2`, which AC50 is on record?
Answer: > 52 µM (inactive)

Question: Which AC50 does the source give for `Cc1ccc(CNC(=O)CSc2c3c(nc4ccc(Cl)cc24)CCCC3)o1` here?
Answer: > 52 µM (inactive)

Question: For `O=C(CSc1c2c(nc3ccc(Cl)cc13)CCCC2)NC1CC1`, which AC50 is on record?
Answer: > 52 µM (inactive)

Question: Which AC50 does the source give for `O=C(CSc1c2c(nc3ccc(Cl)cc13)CCCC2)N1CCN(Cc2ccccc2)CC1` here?
Answer: > 52 µM (inactive)

Question: With `O=C(COc1ccc(C(=O)NC2CCCCC2)cc1)Nc1cccc(C(F)(F)F)c1` as the compound, how does the AC50 read?
Answer: > 52 µM (inactive)

Question: With `CCN1CCCC1CNC(=O)CSc1c2c(nc3ccc(Cl)cc13)CCCC2` (configuration not stated) as the compound, how does the AC50 read?
Answer: 16.1 µM

Question: Which AC50 does the source give for `O=C(CSc1c2c(nc3cc(Cl)ccc13)CCCC2)N(Cc1ccco1)C1CCCC1` here?
Answer: > 52 µM (inactive)

Question: For `O=C(COc1ccccc1C(=O)NCCOc1ccc(Cl)cc1)Nc1cccc(Cl)c1`, which AC50 is on record?
Answer: > 52 µM (inactive)

Question: Which AC50 does the source give for `CC1(C)CC(NC(=O)c2ccc(OCC(=O)Nc3cccc(C(F)(F)F)c3)cc2)CC(C)(C)N1` here?
Answer: > 52 µM (inactive)

Question: For `COc1cc(CNCCCN2CCOCC2)ccc1OCC(=O)Nc1cccc(C(F)(F)F)c1`, which AC50 is on record?
Answer: > 24 µM (inactive)

Question: Which AC50 does the source give for `O=C(CSc1c2c(nc3ccc(Cl)cc13)CCCC2)N1CCOCC1` here?
Answer: > 52 µM (inactive)

Question: Which AC50 does the source give for `O=C(CSc1c2c(nc3ccccc13)CCCC2)NCc1ccco1` here?
Answer: > 52 µM (inactive)

Question: With `CC(Sc1c2c(nc3ccc(Cl)cc13)CCCC2)C(=O)NCc1ccco1` (configuration not stated) as the compound, how does the AC50 read?
Answer: > 52 µM (inactive)

Question: Which AC50 does the source give for `O=C(CSc1c2c(nc3ccc(Cl)cc13)CCCC2)NCc1ccc2c(c1)OCO2` here?
Answer: > 52 µM (inactive)

System: not listed separately
Test: as above
Details: HepG2 viability, ATP luminescence (CellTiter-Glo), 72 h; at 12 µM (top of the series)

Question: Which activity change, negative = cytotoxicity does the source give for `O=C(CSc1c2c(nc3ccc(Cl)cc13)CCCC2)NCc1cccs1` here?
Answer: -11.9% (inactive)

Same assay, conditions: HepG2 viability, ATP luminescence (CellTiter-Glo), 72 h; at 26 µM (top of the series)

Question: For `CN(C(=O)COc1ccc(Cl)cc1C(N)=O)c1ccccc1`, which activity change, negative = cytotoxicity is on record?
Answer: 6.24% (inactive)

Question: Which activity change, negative = cytotoxicity does the source give for `O=C(CSc1c2c(nc3ccc(Cl)cc13)CCCC2)N1CCNC1=O` here?
Answer: -15.2% (inactive)

Question: For `CCOc1ccc(NC(=O)COc2ccc(C(=O)N3CCC(C(N)=O)CC3)cc2OC)cc1`, which activity change, negative = cytotoxicity is on record?
Answer: -12.6% (inactive)

Question: For `O=C(COc1ccccc1C(=O)NCc1ccccc1)Nc1ccccc1`, which activity change, negative = cytotoxicity is on record?
Answer: -9.2% (inactive)

Question: Which activity change, negative = cytotoxicity does the source give for `Cc1ccc(NC(=O)COc2ccccc2C(=O)NCCN(C)C)cc1` here?
Answer: -14.7% (inactive)

Question: For `CN(C(=O)COc1ccccc1C(N)=O)c1ccccc1`, which activity change, negative = cytotoxicity is on record?
Answer: 2.01% (inactive)

Question: With `CCOC(=O)C1CCN(C(=O)c2ccc(OCC(=O)Nc3ccc(OCC)cc3)c(OC)c2)CC1` as the compound, how does the activity change, negative = cytotoxicity read?
Answer: -2.93% (inactive)

Question: For `O=C(COc1ccc(C(=O)N2CCC2)cc1)Nc1cccc(C(F)(F)F)c1`, which activity change, negative = cytotoxicity is on record?
Answer: -3.29% (inactive)

Question: With `CCOC(=O)C1CCN(C(=O)c2ccc(OCC(=O)N3CCOCC3)c(OC)c2)CC1` as the compound, how does the activity change, negative = cytotoxicity read?
Answer: -12.3% (inactive)

Question: Which activity change, negative = cytotoxicity does the source give for `COC(=O)CCCN(C)C(=O)c1ccc(OCC(=O)Nc2cccc(OC)c2)cc1` here?
Answer: -8.54% (inactive)

Question: For `O=C(COc1ccc(C(=O)N2CCN(C(=O)C3CC3)CC2)cc1)Nc1cccc(C(F)(F)F)c1`, which activity change, negative = cytotoxicity is on record?
Answer: -22.9% (inactive)

Question: With `CN(C(=O)COc1ccccc1C(=O)Nc1ccccc1)c1ccccc1` as the compound, how does the activity change, negative = cytotoxicity read?
Answer: -11.2% (inactive)

Question: With `O=C(O)CSc1c2c(nc3cc(C(=O)NCc4cccs4)ccc13)CCCC2` as the compound, how does the activity change, negative = cytotoxicity read?
Answer: -3.5% (inactive)

Question: For `COc1ccc(N(Cc2cccs2)C(=O)COc2ccccc2C(=O)Nc2ccccc2)cc1`, which activity change, negative = cytotoxicity is on record?
Answer: -1.88% (inactive)

Question: With `Cn1c(=O)cc(SCC(=O)NCc2ccco2)c2ccccc21` as the compound, how does the activity change, negative = cytotoxicity read?
Answer: 2.16% (inactive)

Question: Which activity change, negative = cytotoxicity does the source give for `O=C(CSc1c2c(nc3ccc(Cl)cc13)CCCC2)N1CCCCC1` here?
Answer: -19.8% (inactive)

Question: For `O=C(CSc1cccc2cccnc12)NCc1ccco1`, which activity change, negative = cytotoxicity is on record?
Answer: 9.13% (inactive)

Question: Which activity change, negative = cytotoxicity does the source give for `O=C(COc1ccc(C(=O)NCC2CCCO2)cc1)Nc1cccc(C(F)(F)F)c1` (configuration not stated) here?
Answer: -9.73% (inactive)

Question: For `CCN(CC)C(=O)CSc1c2c(nc3ccc(Cl)cc13)CCCC2`, which activity change, negative = cytotoxicity is on record?
Answer: -8.05% (inactive)

Question: For `CN(CCOc1ccccc1)C(=O)c1ccc(OCC(=O)Nc2cccc(C(F)(F)F)c2)cc1`, which activity change, negative = cytotoxicity is on record?
Answer: -1.92% (inactive)

Question: For `NC(=O)C1CCN(C(=O)c2ccc(OCC(=O)Nc3cccc(C(F)(F)F)c3)cc2)CC1`, which activity change, negative = cytotoxicity is on record?
Answer: -3.5% (inactive)

Question: With `CN(C)c1ccc(NC(=O)COc2ccccc2C(=O)N2CCOCC2)cc1` as the compound, how does the activity change, negative = cytotoxicity read?
Answer: 8.33% (inactive)

Question: Which activity change, negative = cytotoxicity does the source give for `Cn1cc(SCC(=O)NCc2ccco2)c2ccccc21` here?
Answer: -5.75% (inactive)

Question: For `O=C(CSc1ccc2ccccc2n1)NCc1ccco1`, which activity change, negative = cytotoxicity is on record?
Answer: -2.89% (inactive)

Question: With `Cc1ccc2nc(Cl)cc(SCC(=O)NCc3ccco3)c2c1` as the compound, how does the activity change, negative = cytotoxicity read?
Answer: -16.7% (inactive)

Question: For `COc1ccc(OCCNC(=O)c2ccccc2OCC(=O)Nc2ccc(NC(C)=O)cc2)cc1`, which activity change, negative = cytotoxicity is on record?
Answer: -7.48% (inactive)
